These results are taken from patent US10806747B2, “Methods for treating infection including sepsis via P2X receptor modulation” (Rutgers, The State University of New Jersey, priority 2017, dated 2020).

Experiment [1] deals with sepsis by cecal ligation and puncture (CLP). Nature of the experiment: CLP sepsis model: survival, bacterial load, plasma BUN. The following applies: for survival: monitored 7 days, vs vehicle. Format: in vivo, mice. On the procedure: WT and P2X4R^−/− mice were injected with 10 mg/kg ivermectin or its vehicle and subjected to CLP. The survival of mice was monitored for 7 days *P<0.05-P2X4R^−/− injected with vehicle (n=21) vs. WT injected with vehicle (n=25); ***P<0.001—WT injected with ivermectin (n=20); vs. WT injected with vehicle (n=25). In FIGS. 3B and 3C bacterial burden was determined by counting the number of CFUs on blood agar plates after serial dilution of blood and peritoneal lavage samples. Blood and lavage fluid were collected at 16 hours after CLP. *P<0.05 vs. veh (veh and 10 mg/kg ivermectin; n=10 and 9, respectively. In FIG. 3D BUN was determined from plasma of ivermectin- or vehicle-treated mice 16 hours after CLP. *P<0.05. Veh and 10 mg/kg ivermectin; n=10 and 9, respectively. FIGS. 3E and 3F show ivermectin increasing intracellular killing of E. coli in cultured macrophages. Peritoneal macrophages were infected with E. coli for 90 minutes and then pulsed with ATP for 5 minutes. ATP was then removed and the macrophages were incubated with ivermectin for 30 minutes. Thereafter the ivermectin was removed and the cells were incubated in medium containing gentamicin for another 2 hours. The cells were then lysed and serial dilutions of intracellular content were spread onto LB agar plates. *P<0.05 (n=5-6); **P<0.01 (n=5-6). Data are expressed as mean±SEM. All results are representatives of three experiments.
From these studies, it was believed that pharmacological activation of P2X4Rs would have an effect opposite to that of inactivating these receptors genetically; that is that the pharmacological activation of P2X4Rs would be protective. To examine this, mice were injected with ivermectin, an anti-helminth drug that is a partial allosteric activator of P2X4Rs (Khakh et al. J Neurosci 1999 19:7289-7299) 90 minutes after performing CLP. […] Furthermore, ivermectin potentiated the ATP stimulation of bacterial killing in macrophages in vitro (FIGS. 3E and 3F).
Male C57B16/J rmce were anesthetized using Nembutal, and a 2-cm midline laparotomy was performed to allow exposure of the cecum with adjoining intestine. Approximately two-thirds of the cecum was tightly ligated with a 3.0 silk suture, and the ligated part of the cecum was perforated twice (through and through) with a 20-gauge needle. […] The mice were resuscitated with 1 ml of physiological saline injected subcutaneously and returned to their cages with free access to food and water, and survival was monitored for 7 days (p<0.05). Survival curves were analyzed using two-tailed Fisher's exact test.
Bacterial load in mice subjected to CLP was measured at 16 h after surgery. Dilutions of blood or peritoneal lavage fluid were cultured on tryptose blood agar plates, and the number of bacterial colonies was counted. […]

Experiment [2] concerns peritoneal macrophages. Nature of the experiment: Intracellular killing of E. coli by peritoneal macrophages (gentamicin protection, CFU count). Type of experiment: cell-based, murine. The conditions noted are these: for effect on ATP-stimulated E. coli killing: antagonist pretreatment 30 min before 5 min ATP pulse. Here is the method:
FIGS. 1A through 1K show ATP augments bacterial killing in macrophages in a P2X4R-dependent fashion. […] Peritoneal macrophages from WT and P2X7R^−/− mice were infected with E. coli (FIG. 1A) or with S. aureus (FIG. 1B) for 90 minutes, which was followed by pulsing the cells with ATP for 5 minutes. Subsequently, after a 2-hour incubation with 400 ng/ml gentamicin, the macrophages were lysed and serial dilutions of their intracellular content were spread onto LB agar plates. *P<0.05; **P<0.01 vs. E. coli; n=5-6. FIG. 1C and FIG. 1D show ATP augments bacterial killing independently of adenosine. Macrophages from WT and CD39^−/− mice were infected with E. coli, pulsed with ATP (FIG. 1C) or adenosine (FIG. 1D), and then incubated with gentamicin for 2 hours, which was followed by intracellular CFU counting. *P<0.05; **P<0.01 vs. E. coli; n=4-6. […] Peritoneal macrophages were isolated from WT mice and RNA was extracted from untreated cells. RNA was transcribed and quantitative PCRs were conducted. n=6. FIGS. 1F through 1K show P2X4Rs are responsible for the ATP-stimulated increase in bacterial killing in macrophages. Peritoneal macrophages were infected with E. coli for 90 min, pretreated with (FIG. 1F) P2X4R antagonist (5-BDBD) or (FIG. 1G) P2X7R antagonist (A438079) for 30 minutes before an ATP pulse for 5 minutes, and then incubated with gentamicin for 2 hours. Killing was determined at the end of this incubation period. *P<0.05; ***P<0.001 vs. E. coli treatment; ^##P<0.01 vs. ATP/E. coli treatment; n=5-6. In FIG. 1H, macrophages were transfected with scrambled siRNA- or P2X4 siRNA, and the effect of ATP on bacterial killing determined. **P<0.01 vs. E. coli treatment; n=6. In FIG. 1I, peritoneal macrophages from WT and P2X4R^−/− mice were infected with E. coli, pulsed with ATP, incubated with gentamicin for 2 hours and then bacterial killing was determined. **P<0.01 vs. E. coli treatment; n=6. In FIGS. 1J and 1K, phorbol 12-myristate 13-acetate (PMA)-differentiated human monocytic THP-1 cells were infected with E. coli for 90 minutes, exposed to ATP for 5 minutes and then killing was determined as described above for peritoneal macrophages (FIG. 1J). In other experiments, THP-1 cells were infected with E. coli, pretreated with 5-BDBD or vehicle for 30 minutes before a 5-minutes ATP pulse (FIG. 1K), two hours after which intracellular CFUs were determined. **P<0.01; vs. E. coli treatment; ^##P<0.01 vs. ATP/E. coli treatment. n=6-7. Data are expressed as mean±SEM. All results are representatives of three experiments.
Naive, thioglycollate-elicited murine peritoneal macrophages were treated with E. coli (K-12 strain) at 1:15 cell:bacteria ratio in vitro and incubated for 90 minutes to allow for phagocytosis to occur. After 90 minutes, the cells were washed to remove non-phagocytosed bacteria and treated with increasing concentrations (0.1 to 3 μM) of ATP or adenosine for 5 minutes. After 5 minutes, the medium was removed and the cells were washed extensively.
New medium was added that was supplemented with 100 μg/mL gentamicin. This allowed the maturation of the phagosome and killing of the phagocytosed bacteria. The cells were incubated for approximately 2 hours at 37° C. After incubation, the cells were washed 5 times to remove the gentamicin and were lysed. Colony forming units (CPUs) were determined after an overnight incubation on agar.

The subject of experiment [3] is murine polymicrobial sepsis. The conditions noted are these: injected ATP; cited from earlier work.
In experiment [4] the test system is peritoneal macrophages. Description: Intracellular killing of S. aureus by peritoneal macrophages (CFU count). Format: cell-based, mice. The conditions noted are these: WT and P2X7R−/− macrophages; S. aureus 90 min, ATP pulse 5 min. On the procedure: (§1) FIGS. 1A through 1K show ATP augments bacterial killing in macrophages in a P2X4R-dependent fashion. […] Peritoneal macrophages from WT and P2X7R^-/- mice were infected with E. coli (FIG. 1A) or with S. aureus (FIG. 1B) for 90 minutes, which was followed by pulsing the cells with ATP for 5 minutes. Subsequently, after a 2-hour incubation with 400 ng/ml gentamicin, the macrophages were lysed and serial dilutions of their intracellular content were spread onto LB agar plates. *P<0.05; **P<0.01 vs. E. coli; n=5-6. FIG. 1C and FIG. 1D show ATP augments bacterial killing independently of adenosine. […] RNA was transcribed and quantitative PCRs were conducted. n=6. […] Killing was determined at the end of this incubation period. *P<0.05; ***P<0.001 vs. E. coli treatment; ^##P<0.01 vs. ATP/E. coli treatment; n=5-6. In FIG. 1H, macrophages were transfected with scrambled siRNA- or P2X4 siRNA, and the effect of ATP on bacterial killing determined. **P<0.01 vs. E. coli treatment; n=6. In FIG. 1I, peritoneal macrophages from WT and P2X4R^-/- mice were infected with E. coli, pulsed with ATP, incubated with gentamicin for 2 hours and then bacterial killing was determined. **P<0.01 vs. E. coli treatment; n=6. […] Data are expressed as mean±SEM. […]

In experiment [5] the test system is human monocytic THP-1 cells. Nature of the experiment: Intracellular killing of E. coli by PMA-differentiated THP-1 cells. Type of experiment: cell-based. On the procedure: as §1

As to 22,23-dihydroavermectin [ivermectin], in experiment [1] (16 hours after CLP, 10 mg/kg ivermectin vs vehicle), the “plasma BUN levels” value is listed as “diminished plasma BUN levels”. For the same molecule, the survival entry is on record as “failed to improve survival” in experiment [1] (P2X4R−/− mice, 10 mg/kg ivermectin, CLP) and “improved survival” in experiment [1] (WT mice, 10 mg/kg ivermectin 90 minutes after CLP). For the same molecule, the “bacterial burden (CFUs)” value in experiment [1] (blood and peritoneal lavage, 16 hours after CLP, 10 mg/kg ivermectin vs vehicle) was “decreased bacteria”. Further, in the experiment on peritoneal macrophages [2] (E. coli 90 min, ATP pulse 5 min, then ivermectin 30 min, gentamicin 2 h), the “ATP stimulation of bacterial killing in macrophages” value is recorded as “potentiated”.

On to `Nc1ncnc2c1ncn2[C@@H]1O[C@H](COP(=O)(O)OP(=O)(O)OP(=O)(O)O)[C@@H](O)[C@H]1O` [ATP, adenosine triphosphate], for which the macrophage-mediated bacterial killing result in experiment [3] was “augments macrophage-mediated bacterial killing”. For the same molecule, the “killing of E. coli” value in the experiment with peritoneal macrophages [2] (WT and P2X7R−/− macrophages, E. coli 90 min, ATP pulse 5 min, gentamicin 2 h) is recorded as “increased killing of E. coli”; in the experiment on peritoneal macrophages [2] (macrophages from P2X4R−/− mice, ATP pulse), “failed to stimulate E. coli killing”; in the experiment on peritoneal macrophages [2] (macrophages from WT littermate controls, ATP pulse), “dose-dependent increase in killing”; with peritoneal macrophages [2] (macrophages lacking CD39 (CD39−/−), ATP pulse), “also killed E. coli”; in experiment [5] (ATP 5 min) it was “increased killing of E. coli”. In addition, in the experiment with peritoneal macrophages [2] (macrophages with P2X4R silencing vs scrambled control), the “stimulatory effect of ATP on E. coli killing” value is recorded as “largely reversed”. In addition, in the experiment on peritoneal macrophages [4], the “intracellular bacterial killing (S. aureus)” value is “increases intracellular bacterial killing”.

As for `O=C1CN=C(c2cccc(Br)c2)c2oc3ccccc3c2N1` [P2X4R antagonist], the “effect on ATP-stimulated E. coli killing” value in the experiment with peritoneal macrophages [2] is “prevented the stimulatory effect of ATP on E. coli killing”; in experiment [5] (antagonist 30 min before 5 min ATP pulse) it was “inhibited the stimulatory effect of ATP on E. coli killing”.

As to `Clc1cccc(-c2nnnn2Cc2cccnc2)c1Cl` [P2X7R antagonist], the “effect on ATP-stimulated E. coli killing” value in the experiment on peritoneal macrophages [2] was “not P2X7R antagonist (FIG. 1G) prevented the stimulatory effect of ATP”.

With `Nc1ncnc2c1ncn2[C@@H]1O[C@H](CO)[C@@H](O)[C@H]1O` [adenosine], the “killing of E. coli” value with peritoneal macrophages [2] (macrophages from WT and CD39−/− mice, adenosine pulse) is given as “failed to increase E. coli killing”.
